Measurements published in patent US20230234967A1, “Fused Azole Heterocycles as AHR Antagonists” (Senda Biosciences, Inc., priority 2021, published 2023).

target: T1, AHR (Homo sapiens, UniProt P35869); experiment: DRE-Luciferase Reporter Assay (HepG2 AhR-Lucia reporter cells); assay type: cell-based; conditions: AHR activating ligand at its EC50, luciferase read-out, read-out: HEPG2 Luc IC50
T1 construct: other cell line with a DRE-luciferase reporter stably transfected; endogenous in cells; host or cells: Human HepG2 liver carcinoma AhR-Lucia reporter cells
T1 sequence (P35869 11-848): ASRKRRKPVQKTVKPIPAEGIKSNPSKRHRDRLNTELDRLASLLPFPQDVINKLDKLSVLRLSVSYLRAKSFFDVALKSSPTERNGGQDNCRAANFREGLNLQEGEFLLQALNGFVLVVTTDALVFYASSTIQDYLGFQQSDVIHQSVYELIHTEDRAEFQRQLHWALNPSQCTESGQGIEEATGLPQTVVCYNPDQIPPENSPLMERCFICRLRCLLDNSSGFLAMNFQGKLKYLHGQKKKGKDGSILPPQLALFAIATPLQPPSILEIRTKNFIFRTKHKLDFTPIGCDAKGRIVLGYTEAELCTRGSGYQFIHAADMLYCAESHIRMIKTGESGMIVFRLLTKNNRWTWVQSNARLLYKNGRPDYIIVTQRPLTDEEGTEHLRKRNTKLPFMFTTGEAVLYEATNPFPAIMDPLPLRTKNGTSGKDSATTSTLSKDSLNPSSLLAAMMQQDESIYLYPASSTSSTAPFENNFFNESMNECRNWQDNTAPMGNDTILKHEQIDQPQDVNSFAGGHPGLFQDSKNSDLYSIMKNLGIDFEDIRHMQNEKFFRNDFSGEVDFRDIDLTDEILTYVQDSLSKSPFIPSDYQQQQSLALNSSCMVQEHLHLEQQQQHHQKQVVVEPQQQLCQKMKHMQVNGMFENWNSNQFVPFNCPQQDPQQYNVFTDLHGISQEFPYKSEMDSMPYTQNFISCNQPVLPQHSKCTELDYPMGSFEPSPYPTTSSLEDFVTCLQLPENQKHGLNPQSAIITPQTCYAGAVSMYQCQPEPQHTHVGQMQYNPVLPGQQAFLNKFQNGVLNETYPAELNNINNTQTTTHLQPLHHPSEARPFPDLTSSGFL
Excerpt: Example 27: DRE-Luciferase Reporter Assay
AHR binds to Dioxin Responsive Elements (DRE) upstream of genes that it activates. One measure of AHR activity is activation of a reporter gene, such as luciferase, downstream of one or multiple DRE elements. Luciferase activity will reflect activation and inhibition of AHR in the cells expressing his reporter. 20000 Human HepG2 liver carcinoma—AhR-Lucia reporter cells or Human HT29 colon adenocarcinoma—AhR reporter cells or other cell line with a DRE-luciferase reporter stably transfected were plated in Eagle's Minimal Essential Medium, 10% heat-inactivated FBS, 1×non-essential amino acids Pen-Strep (10,000 U/mL) and Normocin (100 ug/mL) in plates (96-well, 384-well or other plates) and incubated overnight at 37° C. in a CO2 incubator and treated with and without AhR antagonists at a log dilution starting at 100 uM.
After 1 hr that cells were plated an AHR activating ligand, such as TCDD, kynurenine, ITE (2-(1H-indole-3-ylcarbonyl)-4-thiazolecarboxylic methyl ester), VAF347, BNF (beta-naphthoflavone), FICZ (6-formylindolo(3,2-b) carbazole) or other AHR ligands at their specific EC50 concentration, were added to the cells with or without AHR antagonist.
Cells were incubated for 24 or 48 hours or another time point and then, supernatant was analyzed for determination of luciferase activity as a read-out of the AHR activation or inhibition. Luciferase was measured with the commercial kit QUANTI-Luc™ assay solution kit from Invivogen following the manufacturer's instructions.
The level of luciferase with only agonist ligand added was the maximum signal while the luciferase with […] was the minimum signal. IC50 values were determined as the concentration which inhibits half of the luciferase activity. “A” indicates an IC50 value less than 100 nM, “B” indicates an IC50 between 100 and 500 nM, “C” indicates an IC50 above 500 nM.

Compound | IC50 [nM]
Cn1nccc1C(=O)Nc1nc2ccc(-c3ccccc3C(F)(F)F)nc2s1 [Product 1, 1-methyl-N-(5-(2-(trifluoromethyl)phenyl)thiazolo[5,4-b]pyridin-2-yl)-1H-pyrazole-5-carboxamide] | > 500
Cn1ncnc1C(=O)Nc1nc2ccc(-c3cc(F)ccc3C(F)F)nc2s1 [Product 11, N-(5-(2-(difluoromethyl)-5-fluorophenyl)thiazolo[5,4-b]pyridin-2-yl)-1-methyl-1H-1,2,4-triazole-5-carboxamide] | > 500
Cn1nccc1C(=O)Nc1nc2ccc(-c3ccccc3O)nc2s1 [Product 24, N-(5-(2-hydroxyphenyl)thiazolo[5,4-b]pyridin-2-yl)-1-methyl-1H-pyrazole-5-carboxamide] | > 500
Cn1nccc1C(=O)Nc1nc2ccc(-c3ccccn3)nc2s1 [Product 27, 1-methyl-N-(5-(pyridin-2-yl)thiazolo[5,4-b]pyridin-2-yl)-1H-pyrazole-5-carboxamide] | 100 to 500
COc1cccc(-c2ccc3nc(NC(=O)c4ccnn4C)sc3n2)c1 [Product 16, N-(5-(3-methoxyphenyl)thiazolo[5,4-b]pyridin-2-yl)-1-methyl-1H-pyrazole-5-carboxamide] | 100 to 500

The next lines start with the values.

IC50 [nM] | Compound
> 500 | Cn1nccc1C(=O)Nc1nc2ccc(-c3ccccc3N3CCCC3)nc2s1 [Product 21, 1-Methyl-N-(5-(2-(pyrrolidin-1-yl)phenyl)thiazolo[5,4-b]pyridin-2-yl)-1H-pyrazole-5-carboxamide]
> 500 | CC(=O)Nc1nc2ccc(-c3ccccc3N(C)C)nc2s1 [Product 23, N-(5-(2-(dimethylamino)phenyl)thiazolo[5,4-b]pyridin-2-yl)acetamide]
100 to 500 | Cc1ccccc1-c1cc2ncc(NC(=O)c3ccnn3C)cc2[nH]1 [Product 49, 1-methyl-N-(2-(o-tolyl)-1H-pyrrolo[3,2-b]pyridin-6-yl)-1H-pyrazole-5-carboxamide]
< 100 | Cn1ncnc1C(=O)Nc1cnc2cc(-c3ccccc3C(F)(F)F)[nH]c2c1 [Product 45]
> 500 | Cc1ccccc1-c1ccc2nc(NC(=O)N3CCN(C)CC3)sc2n1 [Product 40, 4-methyl-N-(5-(o-tolyl)thiazolo[5,4-b]pyridin-2-yl)piperazine-1-carboxamide]

system: not listed separately; experiment: Solubility Determination Assay (PBS pH 1.6 and pH 7.4); assay type: physicochemical; conditions: PBS buffer, aqueous buffer, kinetic from dmso stock; PBS pH 1.6, 25° C., 2 hours shaking; read-out: Aq. Solubility at pH = 1.6
Procedure: Example 31: Solubility Determination Assay
The stock solutions of test compounds and control compound progesterone were prepared in DMSO at the concentrations of 10 mM. 15 μL of stock solution (10 mM) of each sample was placed in order into their proper 96-well rack. 485 μL of PBS pH 1.6 and pH 7.4 were added into each vial of the cap-less Solubility Sample plate. The assay was performed in singlet. One stir stick was added to each vial and then the vial was sealed using a molded PTFE/Silicone plug. The solubility sample plates were then transferred to the Eppendorf Thermomixer Comfort plate shaker and shaken at 25° C. at 1100 rpm for 2 hours. After completion of the 2 hours, plugs were removed and the stir sticks were removed using a big magnet. The samples from the Solubility Sample plate were transferred into the filter plate. Using the Vacuum Manifold, all the samples were filtered. An aliquot of 5 μL was taken from the filtrate followed by addition of 495 μL of a mixture of H2O and acetonitrile containing internal standard (1:1). A certain proportion of ultrapure water was used to dilute the diluent according to the peak shape. The dilution factor was changed according to the solubility values and the LC-MS signal response.
From the 10 mM DMSO STD plate, 6 μL was transferred into the remaining empty plate, and then 194 μL of DMSO were added to that plate to have a STD concentration of 300 μM. From the 300 μM DMSO STD plate, 5 μL were transferred into the remaining empty plate, and then 495 μL of a mixture of H2O and acetonitrile containing internal standard (1:1) were added to that plate to have a final STD concentration of 3 μM. A certain proportion of ultrapure water was used to dilute the diluent according to the peak shape. The concentrations of the standard samples were changed according to the LC-MS signal response.
The plate was placed into the well plate autosampler. The samples were evaluated by LC-MS/MS analysis.
All calculations were carried out using Microsoft Excel.
The filtrate was analyzed and quantified against a standard of known concentration using LC coupled with mass spectral peak identification and quantitation. Solubility values of the test compound and control compound were calculated as follows: […]
Any value of the compounds that was not within the specified limits was rejected and the experiment was repeated.
“+++” indicates a solubility value equal to or greater than […] “++” indicates a solubility value between 0.1 and 1 μM and “+” indicates a solubility value less than 0.1 μM.

solubility at 2 h [µM] | Compound
≥ 1 | Cc1ccccc1-c1cc2ncc(NC(=O)c3ccnn3C)cc2[nH]1 [Product 49, 1-methyl-N-(2-(o-tolyl)-1H-pyrrolo[3,2-b]pyridin-6-yl)-1H-pyrazole-5-carboxamide]

same assay, conditions: PBS buffer, aqueous buffer, kinetic from dmso stock; PBS pH 7.4, 25° C., 2 hours shaking; read-out: Aq. Solubility at pH = 7.4

solubility at 2 h [µM] | Compound
≥ 1 | Cc1ccccc1-c1cc2ncc(NC(=O)c3ccnn3C)cc2[nH]1 [Product 49, 1-methyl-N-(2-(o-tolyl)-1H-pyrrolo[3,2-b]pyridin-6-yl)-1H-pyrazole-5-carboxamide]
